Several values for one entry are separate records, joined by “and”; a condition that tells them apart may be missing. Equal values may be shown once. Where a SMILES comes first, the peptide text is derived from it. [ ]: non-standard residue; d: D form. Hyp = O=C(O)[C@@H]1C[C@@H](O)CN1
Legend:
IFN-gamma = assay: Example 9 Luminex, LPS hPBMCs: IFN-gamma; assay type: cell-based, human
Procedure: (§1) Treatment Human PBMCs were pretreated with YY-101, YDE-011 and YDE-043 or reference compound; Xiidra® at various concentration (ranging from 1 nM to 100 uM) for 2 h before stimulation. An equal volume of 0.5% DMSO was used as a vehicle control. Then, the cells were treated with LPS at 5 ug/ml. The supernatants from treated cells were harvested at 24 h and placed in a 96 well for Luminex cytokine & chemokine profiling using a Luminex 200 multiplex assay (Luminex; R&D system, USA).
(§2) The main study arm with triplicate wells per group in a 24-well plate: • 1. Blank • 2. PBMC: 0.5% DMSO • 3. PBMC+LPS (5 ug/ml) • 4. PBMC+YY-101 100 uM • 5. PBMC+YY-101 10 uM • 6. PBMC+YY-101 1 uM • 7. PBMC+YY-101 0.1 uM • 8. PBMC+YY-101 0.01 uM • 9. PBMC+LPS (5 ug/ml)+Xiidra®100 uM • 10. PBMC+LPS (5 ug/ml)+Xiidra® 10 uM • 11. PBMC+LPS (5 ug/ml)+Xiidra® 1 uM • 12. PBMC+LPS (5 ug/ml)+Xiidra®0.1 uM • 13. PBMC+LPS (5 ug/ml)+Xiidra®0.01 uM • 14. PBMC+LPS (5 ug/ml)+Xiidra®0.001 uM • 15. PBMC+LPS (5 ug/ml)+YY-101 100 uM • 16. PBMC+LPS (5 ug/ml)+YY-101 10 uM • 17. PBMC+LPS (5 ug/ml)+YY-101 1 uM • 18. PBMC+LPS (5 ug/ml)+YY-101 0.1 uM • 19. PBMC+LPS (5 ug/ml)+YY-101 0.01 uM • 20. PBMC+LPS (5 ug/ml)+YY-101 0.001 uM • 21. PBMC+LPS (5 ug/ml)+YDE-011 100 uM • 22. PBMC+LPS (5 ug/ml)+YDE-011 10 uM • 23. PBMC+LPS (5 ug/ml)+YDE-011 1 uM • 24. PBMC+LPS (5 ug/ml)+YDE-011 0.1 uM • 25. PBMC+LPS (5 ug/ml)+YDE-011 0.01 uM • 26. PBMC+LPS (5 ug/ml)+YDE-011 0.001 uM • 27. PBMC+LPS (5 ug/ml)+YDE-043 100 uM • 28. PBMC+LPS (5 ug/ml)+YDE-043 10 uM • 29. PBMC+LPS (5 ug/ml)+YDE-043 1 uM • 30. PBMC+LPS (5 ug/ml)+YDE-043 0.1 uM • 31. PBMC+LPS (5 ug/ml)+YDE-043 0.01 uM • 32. PBMC+LPS (5 ug/ml)+YDE-043 0.001 uM
(§3) Multiplex assay was used to measure 30 cytokines and chemokines. The 1:2, 1:10 and 1:200 diluted cell supernatant and serial dilution of the standard were dispensed into a 96 well plate at 50 ul/well. Then, the pre-mixed cocktail of antibody-coated magnetic beads was dispensed at 50 ul/well and incubated at room temperature for 2 h in a horizontal orbital microplate shaker at 800±500 rpm. The beads were washed using a magnetic device to prevent loss. The biotin-antibody was dispensed in 50 ul of each well and incubated at room temperature for 1 h in a shaker at 800±500 rpm. After washing, streptavidin-PE was added at 50 ul/well and incubated at room temperature for 30 min in a shaker under the same conditions. Finally, after washing, wash buffer (100 ul/well) was added to the plate and incubated in a shaker for 2 min. The Luminex™ 200 setting were set according to the manufacturer's protocol. The data was calculated with a standard five-parameter logistic nonlinear regression analysis of the data (xPonent software 4.2, USA). The levels of cytokine/chemokine are normalized to the live cell counts (1×10^5 cells/mL) and presented as concentrations per mL (pg/mL or ng/mL).

Fas Ligand = assay: Example 9 Luminex, LPS hPBMCs: Fas Ligand; assay type: cell-based, human
Procedure: as §1, §2, §3

[1] = PBMC + LPS(5 ug/ml) + test article 0.001 uM, Mean
[2] = PBMC + LPS(5 ug/ml) + test article 0.001 uM, single replicates
[3] = PBMC + LPS(5 ug/ml) + test article 0.01 uM, Mean
[4] = PBMC + LPS(5 ug/ml) + test article 0.01 uM, single replicates
[5] = PBMC + LPS(5 ug/ml) + test article 0.1 uM, Mean
[6] = PBMC + LPS(5 ug/ml) + test article 0.1 uM, single replicates
[7] = PBMC + LPS(5 ug/ml) + test article 1 uM, Mean
[8] = PBMC + LPS(5 ug/ml) + test article 1 uM, single replicates
[9] = PBMC + LPS(5 ug/ml) + test article 10 uM, Mean
[10] = PBMC + LPS(5 ug/ml) + test article 10 uM, single replicates
[11] = PBMC + LPS(5 ug/ml) + test article 100 uM, Mean
[12] = PBMC + LPS(5 ug/ml) + test article 100 uM, single replicates
[13] = PBMC + test article 0.01 uM, no LPS, Mean
[14] = PBMC + test article 0.01 uM, no LPS, single replicates
[15] = PBMC + test article 0.1 uM, no LPS, Mean
[16] = PBMC + test article 0.1 uM, no LPS, single replicates
[17] = PBMC + test article 1 uM, no LPS, Mean
[18] = PBMC + test article 1 uM, no LPS, single replicates
[19] = PBMC + test article 10 uM, no LPS, Mean
[20] = PBMC + test article 10 uM, no LPS, single replicates
[21] = PBMC + test article 100 uM, no LPS, Mean
[22] = PBMC + test article 100 uM, no LPS, single replicates
[23] = PBMC + LPS(5 ug/ml) + test article 0.001 uM
[24] = PBMC + LPS(5 ug/ml) + test article 0.01 uM

Compound: CC(C)C[C@H](NC(=O)CNC(=O)[C@H](CC(=O)O)NC(=O)[C@H](CCC(N)=O)NC(=O)CNC(=O)[C@@H]1C[C@@H](O)CN1)C(=O)N[C@@H](C)C(=O)NCC(=O)N1CCC[C@H]1C(=O)N[C@@H](CCCCN)C(=O)O [YY-101] (H-[Hyp]GQDGLAGPK-OH; N-terminus and C-terminus assumed)
- Concentration (IFN-gamma) (IFN-gamma; [1]): 2439.1 pg/mL
- conc/live cell (IFN-gamma) (IFN-gamma; [1]): 378.6 pg/10^5
- Concentration (IFN-gamma) (IFN-gamma; [2]): 2345.3 pg/mL and 2706.6 pg/mL and 2265.5 pg/mL
- conc/live cell (IFN-gamma) (IFN-gamma; [2]): 411.5 pg/10^5 and 381.2 pg/10^5 and 343.3 pg/10^5
- Concentration (IFN-gamma) (IFN-gamma; [3]): 3133.1 pg/mL
- conc/live cell (IFN-gamma) (IFN-gamma; [3]): 507.8 pg/10^5
- Concentration (IFN-gamma) (IFN-gamma; [4]): 3435.7 pg/mL and 3322.0 pg/mL and 2641.6 pg/mL
- conc/live cell (IFN-gamma) (IFN-gamma; [4]): 536.8 pg/10^5 and 553.7 pg/10^5 and 433.0 pg/10^5
- Concentration (IFN-gamma) (IFN-gamma; [5]): 1841.4 pg/mL
- conc/live cell (IFN-gamma) (IFN-gamma; [5]): 313.6 pg/10^5
- Concentration (IFN-gamma) (IFN-gamma; [6]): 2024.2 pg/mL and 1601.1 pg/mL and 1899.0 pg/mL
- conc/live cell (IFN-gamma) (IFN-gamma; [6]): 326.5 pg/10^5 and 307.9 pg/10^5 and 306.3 pg/10^5
- Concentration (IFN-gamma) (IFN-gamma; [7]): 2318.4 pg/mL
- conc/live cell (IFN-gamma) (IFN-gamma; [7]): 355.2 pg/10^5
- Concentration (IFN-gamma) (IFN-gamma; [8]): 2480.1 pg/mL and 2437.0 pg/mL and 2038.3 pg/mL
- conc/live cell (IFN-gamma) (IFN-gamma; [8]): 393.7 pg/10^5 and 343.2 pg/10^5 and 328.8 pg/10^5
- Concentration (IFN-gamma) (IFN-gamma; [9]): 2654.7 pg/mL
- conc/live cell (IFN-gamma) (IFN-gamma; [9]): 406.4 pg/10^5
- Concentration (IFN-gamma) (IFN-gamma; [10]): 3058.1 pg/mL and 2593.6 pg/mL and 2312.4 pg/mL
- conc/live cell (IFN-gamma) (IFN-gamma; [10]): 509.7 pg/10^5 and 405.2 pg/10^5 and 304.3 pg/10^5
- Concentration (IFN-gamma) (IFN-gamma; [11]): 1939.0 pg/mL
- conc/live cell (IFN-gamma) (IFN-gamma; [11]): 333.7 pg/10^5
- Concentration (IFN-gamma) (IFN-gamma; [12]): 1943.2 pg/mL and 2122.4 pg/mL and 1751.5 pg/mL
- conc/live cell (IFN-gamma) (IFN-gamma; [12]): 308.4 pg/10^5 and 342.3 pg/10^5 and 350.3 pg/10^5
- Concentration (IFN-gamma) (IFN-gamma; [13]): 20.8 pg/mL
- conc/live cell (IFN-gamma) (IFN-gamma; [13]): 4.2 pg/10^5
- Concentration (IFN-gamma) (IFN-gamma; [14]): 12.5 pg/mL and 29.1 pg/mL
- conc/live cell (IFN-gamma) (IFN-gamma; [14]): 2.4 pg/10^5 and 6.1 pg/10^5
- Concentration (IFN-gamma) (IFN-gamma; [15]): 20.8 pg/mL
- conc/live cell (IFN-gamma) (IFN-gamma; [15]): 3.9 pg/10^5
- Concentration (IFN-gamma) (IFN-gamma; [16]): 12.5 pg/mL and 29.1 pg/mL
- conc/live cell (IFN-gamma) (IFN-gamma; [16]): 2.8 pg/10^5 and 5.0 pg/10^5
- Concentration (IFN-gamma) (IFN-gamma; [17]): 18.1 pg/mL
- conc/live cell (IFN-gamma) (IFN-gamma; [17]): 3.3 pg/10^5
- Concentration (IFN-gamma) (IFN-gamma; [18]): 12.5 pg/mL and 23.7 pg/mL
- conc/live cell (IFN-gamma) (IFN-gamma; [18]): 2.3 pg/10^5 and 4.3 pg/10^5
- Concentration (IFN-gamma) (IFN-gamma; [19]): 50.9 pg/mL
- conc/live cell (IFN-gamma) (IFN-gamma; [19]): 8.1 pg/10^5
- Concentration (IFN-gamma) (IFN-gamma; [20]): 67.3 pg/mL and 34.4 pg/mL
- conc/live cell (IFN-gamma) (IFN-gamma; [20]): 10.5 pg/10^5 and 5.6 pg/10^5
- Concentration (IFN-gamma) (IFN-gamma; [21]): 36.8 pg/mL
- conc/live cell (IFN-gamma) (IFN-gamma; [21]): 5.6 pg/10^5
- Concentration (IFN-gamma) (IFN-gamma; [22]): 49.9 pg/mL and 23.7 pg/mL
- conc/live cell (IFN-gamma) (IFN-gamma; [22]): 7.8 pg/10^5 and 3.4 pg/10^5
- Fas Ligand Concentration, Mean (Fas Ligand; [23]): 30.9 pg/mL
- Fas Ligand conc/live cell, Mean (Fas Ligand; [23]): 4.9 pg/10^5
- MFI, bead Fas Ligand, Mean (Fas Ligand; [23]): 43.3
- Fas Ligand Concentration (Fas Ligand; [2]): 35.8 pg/mL and 32.7 pg/mL and 24.1 pg/mL
- Fas Ligand conc/live cell (Fas Ligand; [2]): 6.3 pg/10^5 and 4.6 pg/10^5 and 3.7 pg/10^5
- MFI, bead Fas Ligand (Fas Ligand; [2]): 50.5 and 46.0 and 33.5
- Fas Ligand Concentration, Mean (Fas Ligand; [24]): 33.8 pg/mL
- Fas Ligand conc/live cell, Mean (Fas Ligand; [24]): 5.5 pg/10^5
- MFI, bead Fas Ligand, Mean (Fas Ligand; [24]): 47.5
- Fas Ligand Concentration (Fas Ligand; [4]): 30.7 pg/mL and 39.3 pg/mL and 31.3 pg/mL
- Fas Ligand conc/live cell (Fas Ligand; [4]): 4.8 pg/10^5 and 6.6 pg/10^5 and 5.1 pg/10^5

Source: patent US20230146455A1, “TREATMENT OF INFLAMMATORY DISEASES WITH PEPTIDES AND PHARMACEUTICAL COMPOSITIONS” (Yuyu Pharma, Inc., priority 2020, published 2023)
